According to patent US4001325A, “α-Chloroacetanilide selective herbicides” (Diamond Shamrock Corporation, priority 1973, dated 1977):

Columns and labels:
[1] = tested on: broadleaf species: pigweed, velvetleaf, morningglory; experiment: Greenhouse preemergence herbicide test, broadleaves; type: in vivo; details: two weeks after treatment, 20160 min
Protocol: (§1) To illustrate the preemergence herbicidal efficiency of the alkyl-substituted 2-chloro-N-propargylacetanilides of this invention, test formulations are prepared of each compound by mixing 20 ml of an acetone solution containing 0.125 g of chemical with 20 ml of water containing 0.01 g of Triton X-155 surfactant. The resultant formulations contain 3125 ppm of test compound, 50% by volume of acetone and 0.025% by weight of surfactant. Appropriate lower concentrations are obtained by diluting this formulation with surfactant-acetone solution so that the concentration of adjuvants is maintained at the original levels.
(§2) Seeds of three broadleaf and three grass species are planted in soil contained in 10 inch × 8 inch × 3 inch aluminum pans filled with 1.5 inches of composted soil. The broadleaf species are pigweed (Amaranthus retroflexus), velvetleaf (Abutilon theophrasti), and morningglory (Ipomea coccinea); the grasses are red millet (Panicum milliacem), green foxtail (Setaria viridis) and Japanese millet (Echinochloa frumentacea).
(§3) The seeded pans are sprayed so that the soil surface is uniformly covered with dilutions of the stock formulation providing dosage rates of the test compounds as shown in the following table.
(§4) Two weeks after treatment, percent control (plant kill) at each dosage rate is estimated with results as follows: […]

[2] = tested on: grass species: red millet, green foxtail, Japanese millet; experiment: Greenhouse preemergence herbicide test, grasses; type: in vivo, Panicum milliacem, Setaria viridis, Echinochloa frumentacea; details: pre-emergence, 336 h, two weeks after treatment; for pest or weed control at 140.106 g/ha: 0.125 lb/A; for pest or weed control at 280.212 g/ha: 0.25 lb/A; for pest or weed control at 560.425 g/ha: 0.5 lb/A; for pest or weed control at 1120.85 g/ha: 1.0 lb/A; for pest or weed control at 69.4927 g/ha: 0.062 lb/A
Protocol: as §1, §2, §3, §4

Soybeans = experiment: Field preemergence test, phytotoxic effects on crop; type: in vivo, var. Davis
Text: (§5) Test plots of fertilized, light sandy soil containing 0.7% organic matter are sprayed uniformly with aqueous suspensions prepared from emulsifiable concentrates containing 12%, by weight, of the test chemicals diluted to provide dosage rates of the test compounds corresponding to 2.0, 1.0, 0.5, and 0.25 pound per acre (lb/A). The plots are then sown with seeds of the following crop plants: sweet corn, cotton (Coker 413) and soybeans, var. Davis. Seeds of the following weed plants are planted: redroot pigweed, prickly sida, common lambsquarter, goosegrass and giant foxtail.
(§6) Three to four weeks after planting, percent control (plant kill) of the test plants is estimated, from a rating of 0 which denotes no injury to the plant up to 100 which denotes complete destruction. The herbicidal action of the test compounds obtained on the weed species is as follows:
(§7) Phytotoxic effects observed on the crop species is estimated with results as follows: […]

Common Lambsquarter = experiment: Field preemergence test, weed control; type: in vivo; details: 3-4 weeks after planting
Text: as §5
(§8) Three to four weeks after planting, percent control (plant kill) of the test plants is estimated, from a rating of 0 which denotes no injury to the plant up to 100 which denotes complete destruction. The herbicidal action of the test compounds obtained on the weed species is as follows: […]

Giant Foxtail = experiment: Field preemergence test, weed control; type: in vivo; details: 3-4 weeks after planting
Text: as §5, §8

Prickly Sida = experiment: Field preemergence test, weed control; type: in vivo; details: 3-4 weeks after planting
Text: as §5, §8

Redroot Pigweed = experiment: Field preemergence test, weed control; type: in vivo; details: 3-4 weeks after planting
Text: as §5, §8

Goosegrass = experiment: Field preemergence test, weed control; type: in vivo; details: 3-4 weeks after planting
Text: as §5, §8

Corn = experiment: Field preemergence test, phytotoxic effects on crop; type: in vivo, sweet corn
Text: as §5, §6, §7

Cotton = experiment: as above; type: in vivo, cotton (Coker 413)
Text: as §5, §6, §7

Compound | % Control, Broadleaves ([1]; 1.0 lb/A) [%] | pest or weed control at 140.106 g/ha [2] [%] | pest or weed control at 280.212 g/ha [2] [%] | pest or weed control at 560.425 g/ha [2] [%] | pest or weed control at 1120.85 g/ha [2] [%] | % Crop Kill, Soybeans (Soybeans; 0.5 lb/A) [%] | % Crop Kill, Soybeans (Soybeans; 1.0 lb/A) [%] | % Crop Kill, Soybeans (Soybeans; 2.0 lb/A) [%] | % Weed Control, Common Lambsquarter (Common Lambsquarter; 0.25 lb/A) [%] | % Weed Control, Common Lambsquarter (Common Lambsquarter; 0.5 lb/A) [%] | % Weed Control, Common Lambsquarter (Common Lambsquarter; 1.0 lb/A) [%] | % Weed Control, Common Lambsquarter (Common Lambsquarter; 2.0 lb/A) [%] | % Weed Control, Giant Foxtail (Giant Foxtail; 0.25 lb/A) [%] | % Weed Control, Giant Foxtail (Giant Foxtail; 0.5 lb/A) [%] | % Weed Control, Giant Foxtail (Giant Foxtail; 1.0 lb/A) [%] | % Weed Control, Giant Foxtail (Giant Foxtail; 2.0 lb/A) [%] | % Weed Control, Prickly Sida (Prickly Sida; 0.25 lb/A) [%] | % Weed Control, Prickly Sida (Prickly Sida; 0.5 lb/A) [%] | % Weed Control, Prickly Sida (Prickly Sida; 1.0 lb/A) [%] | pest or weed control at 69.4927 g/ha [2] [%] | also measured
C#CCN(C(=O)CCl)c1c(CC)cccc1C(C)C [Example 14, 2-Chloro-2'-ethyl-6'-isopropyl-N-propargylacetanilide] | 0 | 40 | 40 | 80 | 100 | – | – | – | – | – | – | – | – | – | – | – | – | – | – | – | –
C#CCN(C(=O)CCl)c1ccccc1CC [Example 11, 2-Chloro-2'-ethyl-N-propargylacetanilide] | 35 | 55 | 80 | 90 | 95 | 0 | 0 | 3 | 50 | 70 | 100 | 100 | 0 | 23 | 45 | 90 | 0 | 13 | 33 | 0 | % Weed Control, Prickly Sida (Prickly Sida; 2.0 lb/A): 57%; % Weed Control, Redroot Pigweed (Redroot Pigweed; 0.25 lb/A): 33%; % Weed Control, Redroot Pigweed (Redroot Pigweed; 0.5 lb/A): 75%; % Weed Control, Redroot Pigweed (Redroot Pigweed; 1.0 lb/A): 80%; % Weed Control, Redroot Pigweed (Redroot Pigweed; 2.0 lb/A): 98%; % Weed Control, Goosegrass (Goosegrass; 0.25 lb/A): 62%; % Weed Control, Goosegrass (Goosegrass; 0.5 lb/A): 82%; % Weed Control, Goosegrass (Goosegrass; 1.0 lb/A): 100%; % Weed Control, Goosegrass (Goosegrass; 2.0 lb/A): 100%; % Crop Kill, Corn (Corn; 0.5 lb/A): 0%; % Crop Kill, Corn (Corn; 1.0 lb/A): 0%; % Crop Kill, Corn (Corn; 2.0 lb/A): 0%; % Control, Broadleaves ([1]; 0.5 lb/A): 0%; % Crop Kill, Cotton (Cotton; 0.5 lb/A): 0%; % Crop Kill, Cotton (Cotton; 1.0 lb/A): 10%; % Crop Kill, Cotton (Cotton; 2.0 lb/A): 18%
C#CCN(C(=O)CCl)c1ccccc1C(C)C [Example 16, 2-Chloro-2'-isopropyl-N-propargylacetanilide] | 0 | – | 80 | 90 | 100 | – | – | – | – | – | – | – | – | – | – | – | – | – | – | – | –
C#CCN(C(=O)CCl)c1c(C)cccc1C(C)C [Example 12, 2-Chloro-2'-methyl-6'-isopropyl-N-propargylacetanilide] | 0 | 65 | – | 70 | 90 | – | – | – | – | – | – | – | – | – | – | – | – | – | – | 45 | % Control, Broadleaves ([1]; 2.0 lb/A): 40%; pest or weed control at 2241.7 g/ha ([2]; 2.0 lb/A): 90%
C#CCN(C(=O)CCl)c1ccccc1C [Example 10, 2-Chloro-2'-methyl-N-propargylacetanilide] | 35 | 55 | 85 | 80 | 90 | 0 | 0 | 0 | 40 | 60 | 95 | 95 | 0 | 20 | 70 | 80 | 0 | 0 | 0 | 0 | % Weed Control, Prickly Sida (Prickly Sida; 2.0 lb/A): 25%; % Weed Control, Redroot Pigweed (Redroot Pigweed; 0.25 lb/A): 0%; % Weed Control, Redroot Pigweed (Redroot Pigweed; 0.5 lb/A): 27%; % Weed Control, Redroot Pigweed (Redroot Pigweed; 1.0 lb/A): 45%; % Weed Control, Redroot Pigweed (Redroot Pigweed; 2.0 lb/A): 67%; % Weed Control, Goosegrass (Goosegrass; 0.25 lb/A): 53%; % Weed Control, Goosegrass (Goosegrass; 0.5 lb/A): 78%; % Weed Control, Goosegrass (Goosegrass; 1.0 lb/A): 92%; % Weed Control, Goosegrass (Goosegrass; 2.0 lb/A): 97%; % Crop Kill, Corn (Corn; 0.5 lb/A): 0%; % Crop Kill, Corn (Corn; 1.0 lb/A): 0%; % Crop Kill, Corn (Corn; 2.0 lb/A): 0%; % Control, Broadleaves ([1]; 0.062 lb/A): 0%; % Control, Broadleaves ([1]; 0.125 lb/A): 0%; % Control, Broadleaves ([1]; 0.25 lb/A): 0%; % Control, Broadleaves ([1]; 0.5 lb/A): 0%; % Crop Kill, Cotton (Cotton; 0.5 lb/A): 0%; % Crop Kill, Cotton (Cotton; 1.0 lb/A): 3%; % Crop Kill, Cotton (Cotton; 2.0 lb/A): 3%
C#CCN(C(=O)CCl)c1c(C(C)C)cccc1C(C)C [Example 13, 2-Chloro-2',6'-diisopropyl-N-propargylacetanilide] | 0 | 20 | 50 | 90 | 90 | – | – | – | – | – | – | – | – | – | – | – | – | – | – | – | –
